Marks after values point to notes of the source that are not given here.
Tests used:
Format in all cases: in vivo, human
[1] = tested on: hepatic proton density fat fraction (PDFF); test: Hepatic fat by MRI-PDFF, proof of concept study in subjects with NASH; details: for PDFF compared with BL (in words): 12 weeks; for MRI-PDFF, median relative (%) change from BL / ≥30% reduction in MRI-PDFF, % of subjects: W12, orally QD for 12 weeks
Method: (§1) 70 subjects with NASH diagnosed by a hepatic proton density fat fraction (PDFF) ≥10% and liver stiffness ≥2.88 kPa by MRE, or liver biopsy consistent with NASH and stage 2-3 fibrosis were enrolled. Successive cohorts received monotherapy with Formula (II) 18 mg, Formula (VII) 20 mg, or Formula (V) 30 mg (n=10/cohort), or combination therapy with Formula (II)+Formula (VII) (18/20 mg) or Formula (II)+Formula (V) (18/30 mg) (n=20/cohort) orally QD for 12 weeks. Centrally-read PDFF and MRE, and serum fibrosis markers were measured at baseline (BL), W4 and W12. Deuterated water was administered to measure fractional synthesis of lipids (de novo lipogenesis [DNL]) and fibrosis-related markers (data are pending).

liver stiffness = test: Liver stiffness by MRE, proof of concept study in subjects with NASH; details: W12, orally QD for 12 weeks
Method: as §1

ALT, GGT = test: Liver biochemistry (ALT, GGT), proof of concept study in subjects with NASH; details: for ALT, median relative (%) change from BL / GGT, median relative (%) change from BL: W12, orally QD for 12 weeks
Method: as §1

TIMP-1, PIII-NP = test: Serum fibrosis markers (TIMP-1, PIII-NP), proof of concept study in subjects with NASH; details: for PIII-NP, median relative (%) change from BL / TIMP-1, median relative (%) change from BL: serum, W12, orally QD for 12 weeks
Method: as §1

[2] = Safety (AEs), proof of concept study in subjects with NASH; details: over 12 weeks, orally QD
Method: as §1

**Q.** With `O=C(O)c1ccnc(N2CC(O)(c3ccc(OCc4c(-c5c(Cl)cccc5Cl)noc4C4CC4)cc3Cl)C2)c1` [Formula (V)] as the compound, how does the “PDFF compared with BL (in words)” value [1] read?
**A.** Its value is “reduced”.

**Q.** What about the “MRI-PDFF, median relative (%) change from BL” value [1] of the same compound?
**A.** The value was −15.6* %.

**Q.** And the “≥30% reduction in MRI-PDFF, % of subjects” value [1]?
**A.** Its value is 0%.

**Q.** And the “MRE, median relative (%) change from BL” value (liver stiffness)?
**A.** Its value is −8.3%.

**Q.** What about the “ALT compared with BL (in words)” value (ALT, GGT; 12 weeks) of the same compound?
**A.** Its value is “reduced”.

**Q.** What about the “GGT compared with BL (in words)” value (ALT, GGT; 12 weeks) of the same compound?
**A.** The value was “reduced”.

**Q.** What about the “ALT, median relative (%) change from BL” value (ALT, GGT) of the same compound?
**A.** The value was −29.7%.

**Q.** And the “GGT, median relative (%) change from BL” value (ALT, GGT)?
**A.** Its value is −19.3* %.

**Q.** And the “PIII-NP, median relative (%) change from BL” value (TIMP-1, PIII-NP)?
**A.** The value was 8.8%.

**Q.** And the “TIMP-1, median relative (%) change from BL” value (TIMP-1, PIII-NP)?
**A.** Its value is 6.6* %.

**Q.** And the “Grade 2 or higher AE, % of subjects” value [2]?
**A.** The value was 40%.

**Q.** With `Cc1cc(F)c(C(=O)Nc2cccc(-c3nncn3[C@@H](C)CF)n2)cc1-n1cnc(C2CC2)c1` [Formula (VII)] as the compound, how does the “PDFF compared with BL (in words)” value [1] read?
**A.** The value was “significant improvements”.

**Q.** And the “MRI-PDFF, median relative (%) change from BL” value [1]?
**A.** Its value is −42.7* %.

**Q.** What about the “≥30% reduction in MRI-PDFF, % of subjects” value [1] of the same compound?
**A.** The value was 70%.

**Q.** And the “MRE, median relative (%) change from BL” value (liver stiffness)?
**A.** The value was −8.9%.

**Q.** And the “ALT compared with BL (in words)” value (ALT, GGT; 12 weeks)?
**A.** The value was “non-significant reductions”.

**Q.** What about the “ALT, median relative (%) change from BL” value (ALT, GGT) of the same compound?
**A.** The value was −33.5%.

**Q.** What about the “GGT, median relative (%) change from BL” value (ALT, GGT) of the same compound?
**A.** The value was −1.6%.

**Q.** And the “PIII-NP compared with BL (in words)” value (TIMP-1, PIII-NP; 12 weeks)?
**A.** Its value is “non-significant reductions”.

**Q.** And the “TIMP-1 compared with BL (in words)” value (TIMP-1, PIII-NP; 12 weeks)?
**A.** Its value is “significant improvements”.

**Q.** What about the “PIII-NP, median relative (%) change from BL” value (TIMP-1, PIII-NP) of the same compound?
**A.** Its value is −11.9%.

**Q.** And the “TIMP-1, median relative (%) change from BL” value (TIMP-1, PIII-NP)?
**A.** The value was −11.6* %.

**Q.** And the “Grade 2 or higher AE, % of subjects” value [2]?
**A.** The value was 40%.

**Q.** What does the source list for `Cc1cc(F)c(C(=O)Nc2cccc(-c3nncn3C(C)C)n2)cc1-n1cnc(C2CC2)c1` [Formula (II)]?
**A.** MRI-PDFF, median relative (%) change from BL [1]: 7.1%; ≥30% reduction in MRI-PDFF, % of subjects [1]: 10%; MRE, median relative (%) change from BL (liver stiffness): −8.6%; ALT, median relative (%) change from BL (ALT, GGT): −1.2%; GGT, median relative (%) change from BL (ALT, GGT): −4.4%; PIII-NP, median relative (%) change from BL (TIMP-1, PIII-NP): −8.7%; TIMP-1, median relative (%) change from BL (TIMP-1, PIII-NP): 2.6%; Grade 2 or higher AE, % of subjects [2]: 40%

Source: US20180333401A1, “METHODS OF TREATING LIVER DISEASE” (Gilead Sciences, Inc., priority 2017, published 2018)
